In patent US10273222B2 (CELGENE QUANTICEL RESEARCH, INC., priority 2013, dated 2019) one finds IC50 data, which are given here for eleven compounds.

Broadly, the IC50 is the concentration that inhibits the measured activity by half.

Type in all cases: biochemical
In experiment [1] the target is Jarid1B (Homo sapiens (Human), UniProt Q9UGL1). The experiment is described as follows: Jarid1B in vitro enzyme inhibition assay (TR-FRET).
Protocol: This assay determines the ability of a test compound to inhibit Jarid1A, Jarid1B, JMJD2C, and JMJD2A demethylase activity.
The ability of test compounds to inhibit the activity of Jarid1B was determined in 384-well plate format under the following reaction conditions: 0.8 nM Jarid1B, 300 nM H3K4me3-biotin labeled peptide (Anaspec cat #64357), 2 μM alpha-ketoglutaric acid in assay buffer of 50 mM HEPES, pH7.3, 0.005% Brij35, 0.5 mM TCEP, 0.2 mg/ml BSA, 50 μM sodium L-ascorbate, and 2 μM ammonium iron(II) sulfate. Reaction product was determined quantitatively by TR-FRET after the addition of detection reagent Phycolink Streptavidin-allophycocyanin (Prozyme) and Europium-anti-mono- or di-methylated histone H3 lysine 4 (H3K4me1-2) antibody (PerkinElmer) in the presence of 5 mM EDTA in LANCE detection buffer (PerkinElmer) at a final concentration of 25 nM and 1 nM, respectively.
The assay reaction was initiated by the following: 2 μl of the mixture of 900 nM H3K4me3-biotin labeled peptide and 6 μM alpha-ketoglutaric acid with 2 μl of 11-point serial diluted inhibitor in 3% DMSO was added to each well of the plate, followed by the addition of 2 μl of 2.4 nM Jarid1B to initiate the reaction. The reaction mixture was incubated at room temperature for 30 minutes, and terminated by the addition of 6 μl of 5 mM EDTA in LANCE detection buffer containing 50 nM Phycolink Streptavidin-allophycocyanin and 2 nM Europium-anti-H3K4me1-2 antibody. Plates were read by EnVisionMultilabel Reader in TR-FRET mode (excitation at 320 nm, emission at 615 nm and 665 nm) after 1 hour incubation at room temperature. A ratio was calculated (665/615) for each well and fitted to determine inhibition constant (IC50).
The target of experiment [2] is JMJD2C (Homo sapiens (Human), UniProt Q9H3R0). In words: JMJD2C in vitro enzyme inhibition assay (TR-FRET). For orientation: Time-resolved FRET reads energy transfer from a long-lived donor to a nearby acceptor.
The target in experiment [3] is Jarid1A (Homo sapiens (Human), UniProt P29375). The experiment is described as follows: Jarid1A in vitro enzyme inhibition assay (TR-FRET). From the text: The enzymatic assay of Jarid1A activity is based upon Time Resolved-Fluorescence Resonance Energy Transfer (TR-FRET) detection.
Experiment [4] deals with FBXL10 (Homo sapiens (Human), UniProt Q8NHM5). In words: FBXL10 in vitro enzyme inhibition assay (AlphaScreen). A digest of the protocol:
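AlphaScreen read-out of H3K36me1 product, detected with anti-H3K36me1 antibody plus streptavidin donor and Protein A acceptor beads (final 10 μg/ml) in 50 mM HEPES pH 7.3, 10 mM NaCl, 0.005% Brij35, 5 mM EDTA, 2 mg/ml BSA. Beads incubated 2 h to overnight at room temperature; IC50 derived from AlphaScreen signal.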

Molecules are shown by their SMILES.

Chain of Jarid1B (Q9UGL1 2-751): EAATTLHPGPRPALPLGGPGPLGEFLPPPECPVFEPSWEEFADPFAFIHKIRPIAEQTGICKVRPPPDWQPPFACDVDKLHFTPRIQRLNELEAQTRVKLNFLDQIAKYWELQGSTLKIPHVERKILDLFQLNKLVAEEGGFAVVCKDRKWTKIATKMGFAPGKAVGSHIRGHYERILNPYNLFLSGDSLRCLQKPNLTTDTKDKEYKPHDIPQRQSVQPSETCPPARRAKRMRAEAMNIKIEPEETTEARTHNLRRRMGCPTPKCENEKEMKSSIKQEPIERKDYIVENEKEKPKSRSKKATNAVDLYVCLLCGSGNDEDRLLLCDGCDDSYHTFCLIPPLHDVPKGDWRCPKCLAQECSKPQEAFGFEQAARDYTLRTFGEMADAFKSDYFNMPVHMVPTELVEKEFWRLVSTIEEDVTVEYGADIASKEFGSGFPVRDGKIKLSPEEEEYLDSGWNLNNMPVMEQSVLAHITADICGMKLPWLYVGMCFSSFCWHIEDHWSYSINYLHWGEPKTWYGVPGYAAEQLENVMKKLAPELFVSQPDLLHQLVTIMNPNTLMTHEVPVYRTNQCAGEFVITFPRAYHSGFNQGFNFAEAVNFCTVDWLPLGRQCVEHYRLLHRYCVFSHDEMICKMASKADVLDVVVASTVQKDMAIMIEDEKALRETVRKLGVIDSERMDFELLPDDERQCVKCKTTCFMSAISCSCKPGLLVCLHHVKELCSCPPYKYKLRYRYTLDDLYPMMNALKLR
Chain of Jarid1A (P29375 1-1090): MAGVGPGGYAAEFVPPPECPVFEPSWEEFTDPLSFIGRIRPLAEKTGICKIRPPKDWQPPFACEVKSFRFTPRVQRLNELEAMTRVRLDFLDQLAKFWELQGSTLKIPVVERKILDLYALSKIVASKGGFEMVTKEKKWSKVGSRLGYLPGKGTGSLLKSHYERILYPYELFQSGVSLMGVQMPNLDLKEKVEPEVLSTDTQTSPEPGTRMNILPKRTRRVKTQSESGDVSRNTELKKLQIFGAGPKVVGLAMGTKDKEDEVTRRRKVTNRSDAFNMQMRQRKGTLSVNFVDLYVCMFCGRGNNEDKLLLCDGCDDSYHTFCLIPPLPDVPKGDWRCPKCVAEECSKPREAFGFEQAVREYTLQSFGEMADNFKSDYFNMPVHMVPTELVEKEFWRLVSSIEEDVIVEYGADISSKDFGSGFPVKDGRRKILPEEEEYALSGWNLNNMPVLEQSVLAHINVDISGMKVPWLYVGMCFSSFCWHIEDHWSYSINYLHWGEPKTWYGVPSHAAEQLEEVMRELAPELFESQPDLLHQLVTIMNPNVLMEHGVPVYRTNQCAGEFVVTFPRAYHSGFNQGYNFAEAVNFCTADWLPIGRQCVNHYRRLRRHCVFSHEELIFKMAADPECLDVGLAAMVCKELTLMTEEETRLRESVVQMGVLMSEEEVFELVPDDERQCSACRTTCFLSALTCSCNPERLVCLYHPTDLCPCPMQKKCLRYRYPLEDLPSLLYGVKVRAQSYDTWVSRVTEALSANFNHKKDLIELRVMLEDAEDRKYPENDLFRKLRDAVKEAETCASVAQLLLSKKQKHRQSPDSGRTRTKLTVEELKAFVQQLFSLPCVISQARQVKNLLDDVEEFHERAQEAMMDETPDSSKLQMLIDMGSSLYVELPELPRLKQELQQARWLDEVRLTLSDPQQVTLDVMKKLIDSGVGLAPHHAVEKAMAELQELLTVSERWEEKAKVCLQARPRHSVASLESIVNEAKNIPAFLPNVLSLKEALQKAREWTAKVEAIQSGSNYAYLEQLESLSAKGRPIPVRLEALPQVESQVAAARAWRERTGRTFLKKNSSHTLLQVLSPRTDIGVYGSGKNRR
Chain of FBXL10 (Q8NHM5 1-650): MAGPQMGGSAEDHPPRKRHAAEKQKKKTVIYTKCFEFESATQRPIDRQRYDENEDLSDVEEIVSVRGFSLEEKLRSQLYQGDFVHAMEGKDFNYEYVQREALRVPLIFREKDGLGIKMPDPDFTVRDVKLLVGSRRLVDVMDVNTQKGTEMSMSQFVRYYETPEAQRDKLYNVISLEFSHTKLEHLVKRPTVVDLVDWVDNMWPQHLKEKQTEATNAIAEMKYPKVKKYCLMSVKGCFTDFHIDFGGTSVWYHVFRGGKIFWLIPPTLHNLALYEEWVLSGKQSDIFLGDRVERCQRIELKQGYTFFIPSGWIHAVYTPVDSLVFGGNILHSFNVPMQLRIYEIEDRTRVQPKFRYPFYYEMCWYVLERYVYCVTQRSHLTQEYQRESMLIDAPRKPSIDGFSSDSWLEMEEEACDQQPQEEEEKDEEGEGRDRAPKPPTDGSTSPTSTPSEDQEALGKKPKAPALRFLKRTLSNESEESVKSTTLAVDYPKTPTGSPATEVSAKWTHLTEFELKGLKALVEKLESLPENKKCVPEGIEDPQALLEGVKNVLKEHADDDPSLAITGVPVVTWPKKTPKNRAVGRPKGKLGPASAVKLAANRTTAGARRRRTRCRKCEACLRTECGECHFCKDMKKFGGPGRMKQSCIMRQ
Chain of JMJD2C (Q9H3R0 2-372): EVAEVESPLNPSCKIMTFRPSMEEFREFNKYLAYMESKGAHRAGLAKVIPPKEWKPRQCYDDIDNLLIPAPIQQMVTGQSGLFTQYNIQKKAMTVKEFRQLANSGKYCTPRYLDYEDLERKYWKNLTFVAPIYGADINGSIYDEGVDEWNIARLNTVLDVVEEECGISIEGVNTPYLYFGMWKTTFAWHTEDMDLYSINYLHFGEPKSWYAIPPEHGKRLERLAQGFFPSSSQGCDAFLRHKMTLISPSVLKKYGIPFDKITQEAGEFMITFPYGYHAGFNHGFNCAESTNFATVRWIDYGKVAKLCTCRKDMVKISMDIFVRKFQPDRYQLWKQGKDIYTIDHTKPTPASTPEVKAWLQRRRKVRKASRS

For `CCc1ccc(-c2c(-c3cc(C(=O)O)ccn3)ncn2C)cc1` [Example 5, 2-[5-(4-ethylphenyl)-1-methyl-1H-imidazol-4-yl]pyridine-4-carboxylic acid], the IC50 in experiment [1] is ≤ 0.1 µM; in experiment [2] it was 1 to 10 µM; in experiment [3], ≤ 0.1 µM; in experiment [4], 0.1 to 1 µM.
Turning to `Cn1cnc(-c2cc(C(=O)O)ccn2)c1-c1ccc(Cl)c(Cl)c1` [Example 28, 2-[5-(3,4-dichlorophenyl)-1-methyl-1H-imidazol-4-yl]pyridine-4-carboxylic acid], the IC50 was ≤ 0.1 µM in experiment [1], 0.1 to 1 µM in experiment [2], ≤ 0.1 µM in experiment [3] and 0.1 to 1 µM in experiment [4].
For the compound `O=C(O)c1ccnc(-c2cn(C3CCNC3)cn2)c1` (centres unmarked) [Example 52, 2-[1-(pyrrolidin-3-yl)-1H-imidazol-4-yl]pyridine-4-carboxylic acid], the IC50 in experiment [1] is ≤ 0.1 µM; in experiment [2], ≤ 0.1 µM; in experiment [3] it was ≤ 0.1 µM; in experiment [4] it was 0.1 to 1 µM.
On to `Cn1cnc(-c2cc(C(=O)O)ccn2)c1-c1cccc(CO)c1` [Example 11, 2-{5-[3-(hydroxymethyl)phenyl]-1-methyl-1H-imidazol-4-yl}pyridine-4-carboxylic acid], for which the IC50 in experiment [1] fell in the range of 0.1 to 1 µM; in experiment [2], 1 to 10 µM; in experiment [3], 0.1 to 1 µM; in experiment [4], 0.1 to 1 µM.
In the case of `C#Cc1ccc(-c2c(-c3cc(C(=O)O)ccn3)ncn2C)cc1` [Example 21, 2-[5-(4-ethynylphenyl)-1-methyl-1H-imidazol-4-yl]pyridine-4-carboxylic acid], the 50% inhibitory concentration (IC50) in experiment [1] was ≤ 0.1 µM; in experiment [2] it was 0.1 to 1 µM; in experiment [3], ≤ 0.1 µM; in experiment [4], ≤ 0.1 µM.
With `N#Cc1cccc2c1CN(CCn1cnc(-c3cc(C(=O)O)ccn3)c1)C2` [Example 83, 2-[1-[2-(4-cyano-1,3-dihydroisoindol-2-yl)ethyl]imidazol-4-yl]pyridine-4-carboxylic acid], the IC50 in experiment [1], in experiment [2], in experiment [3] and in experiment [4] was ≤ 0.1 µM in each case.
Consider `Cn1cnc(-c2cc(C(=O)O)ccn2)c1Br` [Example 2, 2-(5-bromo-1-methyl-1H-imidazol-4-yl)pyridine-4-carboxylic acid], for which the IC50 in experiment [1] is ≤ 0.1 µM; in experiment [2], 0.1 to 1 µM; in experiment [3] it was ≤ 0.1 µM; in experiment [4], 0.1 to 1 µM.
`CN1CCOC(Cn2cnc(-c3cc(C(=O)O)ccn3)c2)C1` (centres unmarked) [Example 54, 2-{1-[(4-methylmorpholin-2-yl)methyl]-1H-imidazol-4-yl}pyridine-4-carboxylic acid]: the IC50 in experiment [1], in experiment [2], in experiment [3] and in experiment [4] was ≤ 0.1 µM in each case.
Regarding `O=C(O)c1ccnc(-c2cn(CCN3Cc4ccc(Cl)cc4C3)cn2)c1` [Example 82, 2-[1-[2-(5-chloro-1,3-dihydroisoindol-2-yl)ethyl]imidazol-4-yl]pyridine-4-carboxylic acid], the IC50 in experiment [1], in experiment [2], in experiment [3] and in experiment [4] was ≤ 0.1 µM each time.
Consider `O=C(O)c1ccnc(-c2cn(CCc3cccc(Cl)c3)cn2)c1` [Example 113, 2-[1-[2-(3-chlorophenyl)ethyl]imidazol-4-yl]pyridine-4-carboxylic acid], for which the IC50 is ≤ 0.1 µM in experiment [1], 0.1 to 1 µM in experiment [2], ≤ 0.1 µM in experiment [3] and ≤ 0.1 µM in experiment [4].
Consider `COc1ccccc1CNCCn1cnc(-c2cc(C(=O)O)ccn2)c1` [Example 77, 2-[1-[2-[(2-methoxyphenyl)methylamino]ethyl]imidazol-4-yl]pyridine-4-carboxylic acid], for which the half-maximal inhibitory concentration (IC50) in experiment [1], in experiment [2], in experiment [3] and in experiment [4] was ≤ 0.1 µM throughout.
